In patent US8487121B2, “Chromane derivatives as TRPV3 modulators” (Glenmark Pharmaceuticals S.A., priority 2007, dated 2013) one finds inhibition and IC50 data, which are given here for 23 compounds.

This assay has as its target T1, Human TRPV3 (Homo sapiens, UniProt Q8NET8).
T1 construct: expressed in transfected cells; host or cells: CHO cells (G-418 selected)
T1 sequence (Q8NET8 1-790): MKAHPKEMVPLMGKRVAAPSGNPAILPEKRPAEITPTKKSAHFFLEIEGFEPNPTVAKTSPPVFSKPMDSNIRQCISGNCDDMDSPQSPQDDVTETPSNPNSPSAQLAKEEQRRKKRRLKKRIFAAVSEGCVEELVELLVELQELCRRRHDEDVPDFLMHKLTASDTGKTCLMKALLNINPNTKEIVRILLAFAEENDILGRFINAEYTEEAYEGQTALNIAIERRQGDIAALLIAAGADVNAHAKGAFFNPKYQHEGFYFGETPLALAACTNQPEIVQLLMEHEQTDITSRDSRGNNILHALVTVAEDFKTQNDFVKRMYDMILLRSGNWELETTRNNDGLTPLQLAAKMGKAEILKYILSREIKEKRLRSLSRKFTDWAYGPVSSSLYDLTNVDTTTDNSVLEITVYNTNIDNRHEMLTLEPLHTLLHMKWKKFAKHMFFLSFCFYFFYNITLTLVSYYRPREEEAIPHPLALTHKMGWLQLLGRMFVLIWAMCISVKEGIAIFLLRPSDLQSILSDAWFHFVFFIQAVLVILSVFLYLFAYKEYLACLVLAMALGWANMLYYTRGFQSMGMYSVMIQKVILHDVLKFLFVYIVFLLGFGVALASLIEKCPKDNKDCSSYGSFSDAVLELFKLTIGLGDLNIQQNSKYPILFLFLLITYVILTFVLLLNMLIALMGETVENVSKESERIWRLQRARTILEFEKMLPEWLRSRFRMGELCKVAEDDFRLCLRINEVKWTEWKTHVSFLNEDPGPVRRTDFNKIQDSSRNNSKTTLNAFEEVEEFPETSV
Briefly: 45Calcium uptake assay: inhibition of 2-APB induced cellular uptake of radioactive calcium. Type of assay: cell-based. To be noted: human TRPV3 expressing CHO cells, 2-APB 500 μM; for inhibition at 1 µM: 1.0 μM compound, read-out: Percentage inhibition at 1.0 μM; for inhibition at 10 µM: 10.0 μM compound, read-out: Percentage inhibition at 10.0 μM. An excerpt: The illustrative examples of the present invention are screened for TRPV3 activity according to a modified procedure described in Toth, A. et al. Life Sciences (2003), 73, 487-498. The screening of the compounds can be carried out by other methods and procedures known to a person skilled in the art. Such screening methods may be found in Hu, H-Z., et al. J. Biol. Chem. (2004), 279, 35741-35748; Smith, G. D et al. Nature (2002), 418, 186-190 and Peier, A. M., et al. Science (2002), 296, 2046-2049.
Screening for TRPV3 Antagonist Using the ^45Calcium Uptake Assay:
The inhibition of TRPV3 receptor activation was followed as inhibition of 2-APB induced cellular uptake of radioactive calcium. Test compounds were dissolved in DMSO to prepare 20 mM stock and then diluted using plain medium with 0.1% BSA and 1.8 mM CaCl2 to get desired concentration. Final concentration of DMSO in the reaction was 0.5% (v/v). Human TRPV3 expressing CHO cells were grown in F-12 DMEM medium with 10% FBS, 1% penicillin-streptomycin solution, 400 μg/ml of G-418. Cells were seeded 24 h prior to the assay in 96 well plates so as to get ˜50,000 cells per well on the day of experiment. Cells were treated with test compounds for 10 minutes followed by addition of 2-APB at a final concentration of 500 μM and 5 μCi/ml ^45Ca^+2 for 4 minutes. Cells were washed and lysed using buffer containing 1% Triton X-100, 0.1% deoxycholate and 0.1% SDS. Radioactivity in the lysate was measured in Packardt Top count after addition of liquid scintillant.
Concentration response curves were plotted as a % of maximal response obtained in the absence of test antagonist. IC50 value was calculated from concentration response curve by nonlinear regression analysis using GraphPad PRISM software.
Percentage inhibition at concentrations of 1.0 μM and 10.0 μM are given in the table along with IC50 (nM) values for selected examples.

`O=C(Cc1ccccc1)NC1CC2(CCC2)Oc2c(Cl)cccc21` (centres unmarked) [Example 1, N-(8-Chloro-3,4-dihydrospiro[chromene-2,1′-cyclobutan]-4-yl)-2-phenylacetamide]: the inhibition at 1 µM was 1.7% and the inhibition at 10 µM worked out at 10%.
For `COc1ccccc1CC(=O)NC1CC2(CCC2)Oc2ccc(Cl)cc21` (centres unmarked) [Example 2, N-(6-Chloro-3,4-dihydrospiro[chromene-2,1′-cyclobutan]-4-yl)-2-(2-methoxyphenyl)-acetamide], the inhibition at 1 µM was determined as 12%, the inhibition at 10 µM was 79% and the IC50 is greater than 2000 nM.
As for `CS(=O)(=O)Nc1ccccc1CC(=O)NC1CC2(CCC2)Oc2ccc(Cl)cc21` (centres unmarked) [Example 3, N-(6-chloro-3,4-dihydrospiro[chromene-2,1′cyclobutan]-4-yl)-2-{2-[(methylsulfonyl)-amino]phenyl}acetamide], the inhibition at 1 µM came to 0% and the inhibition at 10 µM stood at 33.1%.
On to `COc1cccc(CC(=O)NC2CC3(CCC3)Oc3ccc(Cl)cc32)c1OC1CCCC1` (centres unmarked) [Example 4, N-(6-Chloro-3,4-dihydrospiro[chromene-2,1′-cyclobutan]-4-yl)-2-(2-(cyclopentyloxy)-3-methoxyphenyl)acetamide], for which the inhibition at 1 µM amounted to 37.2% and the inhibition at 10 µM is 66.2%.
The corresponding values for `COc1cccc(CC(=O)N[C@@H]2CC3(CCC3)Oc3c(Cl)cccc32)c1OC1CCCC1` [Example 5, N-[(4R)-8-Chloro-3,4-dihydrospiro[chromene-2,1′-cyclobutan]-4-yl]-2-(2-cyclopentyloxy-3-methoxy)phenylacetamide] are 11.7% and 86.8%.
As to `COc1cccc(CC(=O)N[C@H]2CC3(CCC3)Oc3c(Cl)cccc32)c1OC1CCCC1` [Example 6, N-[(4S)-8-Chloro-3,4-dihydrospiro[chromene-2,1′-cyclobutan]-4-yl]-2-(2-cyclopentyl-oxy-3-methoxy)phenylacetamide], the inhibition at 1 µM came to 35.3% and the inhibition at 10 µM is 89%.
`COc1ccc(CC(=O)NC2CC3(CCC3)Oc3ccc(Cl)cc32)cc1OC` (centres unmarked) [Example 7, N-(6-Chloro-3,4-dihydrospiro[chromene-2,1′-cyclobutan]-4-yl)-2-(3,4-dimethoxyphenyl)acetamide]: the inhibition at 1 µM was 9.2% and the inhibition at 10 µM stood at 20.3%.
The corresponding values for `O=C(Cc1ccccn1)NC1CC2(CCC2)Oc2ccc(Cl)cc21` (centres unmarked) [Example 8, N-(6-Chloro-3,4-dihydrospiro[chromene-2,1′-cyclobutan]-4-yl)-2-pyridin-2-ylacetamide] are 3.8% and 22.5%.
The matching figures for `O=C(Cc1cccc2ccccc12)NC1CC2(CCC2)Oc2ccccc21` (centres unmarked) [Example 9, N-(3,4-dihydrospiro[chromene-2,1′-cyclobutan]-4-yl)-2-(1-naphthyl)acetamide]: 11.7% and 68.5%.
For the compound `O=C(Cc1cccc2ccccc12)NC1CC2(CCC2)Oc2ccc(F)cc21` (centres unmarked) [Example 10], the inhibition at 1 µM came to 13.7% and the inhibition at 10 µM was found to be 92.4%.
The matching figures for `O=C(Cc1cccc2ccccc12)N[C@@H]1CC2(CCC2)Oc2c(F)cc(F)cc21` [Example 11, N-[(4R)-6,8-difluoro-3,4-dihydrospiro[chromene-2,1′-cyclobutan]-4-yl]-2-(1-naphthyl)acetamide]: 23.6% and 76%.
As to `O=C(Cc1cccc2ccccc12)N[C@@H]1CC2(CCC2)Oc2ccc(Cl)cc21` [Example 12, N-[(4R)-6-Chloro-3,4-dihydrospiro[chromene-2,1′-cyclobutan]-4-yl]-2-(1-naphthyl)acetamide], the IC50 lay within 500 to 1000 nM.
With `O=C(Cc1cccc2ccccc12)N[C@H]1CC2(CCC2)Oc2ccc(Cl)cc21` [Example 13, N-[(4S)-6-Chloro-3,4-dihydrospiro[chromene-2,1′-cyclobutan]-4-yl]-2-(1-naphthyl)-acetamide], the inhibition at 1 µM came out at 5.9%, the inhibition at 10 µM was found to be 87.6% and the IC50 was in the range of 1000 to 2000 nM.
Consider `O=C(Cc1cccc2ccccc12)NC1CC2(CCC2)Oc2cc(Cl)ccc21` (centres unmarked) [Example 14, N-(7-Chloro-3,4-dihydrospiro[chromene-2,1′-cyclobutan]-4-yl)-2-(1-naphthyl)acetamide], for which the inhibition at 1 µM is 9.8% and the inhibition at 10 µM is 78.8%.
Consider `O=C(Cc1cccc2ccccc12)N[C@@H]1CC2(CCC2)Oc2c(Cl)cccc21` [Example 15, N-[(4R)-8-Chloro-3,4-dihydrospiro[chromene-2,1′-cyclobutan]-4-yl]-2-(1-naphthyl)-acetamide], for which the inhibition at 10 µM was 27.3%.
In the case of `O=C(Cc1cccc2ccccc12)N[C@H]1CC2(CCC2)Oc2c(Cl)cccc21` [Example 16, N-[(4S)-8-Chloro-3,4-dihydrospiro[chromene-2,1′-cyclobutan]-4-yl]-2-(1-naphthyl)-acetamide], the inhibition at 1 µM is 0% and the inhibition at 10 µM was 35.2%.
The corresponding values for `O=C(Cc1cccc2ccccc12)NC1CC2(CCC2)Oc2cccc(O)c21` (centres unmarked) [Example 17, N-(5-Hydroxy-3,4-dihydrospiro[chromene-2,1′-cyclobutan]-4-yl)-2-(1-naphthyl)-acetamide] are 21.9% and 70%.
The corresponding values for `O=C(Cc1ccc2ccccc2c1)NC1CC2(CCC2)Oc2ccc(Cl)cc21` (centres unmarked) [Example 18, N-(6-Chloro-3,4-dihydrospiro[chromene-2,1′-cyclobutan]-4-yl)-2-(2-naphthyl)acetamide] are 36.1% and 72.3%.
The matching figures for `COc1ccc2cc([C@H](C)C(=O)N[C@@H]3CC4(CCC4)Oc4ccc(Cl)cc43)ccc2c1` [Example 19, (2S)—N-[(4R)-6-Chloro-3,4-dihydrospiro[chromene-2,1′-cyclobutan]-4-yl]-2-(6-methoxy-2-naphthyl)propanamide]: 23.1% and 61.7%.
Regarding `COc1ccc2cc([C@H](C)C(=O)N[C@H]3CC4(CCC4)Oc4ccc(Cl)cc43)ccc2c1` [Example 20, (2S)—N-[(4S)-6-Chloro-3,4-dihydrospiro[chromene-2,1′-cyclobutan]-4-yl]-2-(6-methoxy-2-naphthyl)propanamide], the inhibition at 1 µM was found to be 19.3% and the inhibition at 10 µM was determined as 50.9%.
Regarding `O=C(CC1CCCc2ccccc21)NC1CC2(CCC2)Oc2ccc(Cl)cc21` (centres unmarked) [Example 21, N-(6-Chloro-3,4-dihydrospiro[chromene-2,1′-cyclobutan]-4-yl)-2-(1,2,3,4-tetrahydronaphthalen-1-yl)acetamide], the inhibition at 1 µM was found to be 63.5%, the inhibition at 10 µM is 93.6% and the IC50 fell in the range of 500 to 1000 nM.
Regarding `O=C(CC1CCc2ccccc2C1)NC1CC2(CCC2)Oc2ccc(Cl)cc21` (centres unmarked) [Example 22, N-[(6-Chloro-3,4-dihydrospiro[chromene-2,1′-cyclobutan]-4-yl)]-2-(1,2,3,4-tetrahydronaphthalen-2-yl)acetamide], the inhibition at 1 µM was 35.3% and the inhibition at 10 µM is 72.1%.
The matching figures for `O=C(Cc1ccc2c(c1)OCO2)NC1CC2(CCC2)Oc2ccc(Cl)cc21` (centres unmarked) [Example 23, 2-(1,3-Benzodioxol-5-yl)-N-(6-chloro-3,4-dihydrospiro[chromene-2,1′-cyclobutan]-4-yl)acetamide]: 6.2% and 65.3%.
